SMILES strings stand for the structures.

The data set is described as follows: Half life in human microsomes. It counts as ADME, Microsome.

`Cn1cnc(C(=O)N(Cc2ccc(F)c(C(F)(F)F)c2)[C@@H]2C[C@H]3CNC[C@H]3C2)c1`: the half-life is over 120 min. As for `Cn1cnc(C(=O)N(Cc2cccc(OC(F)(F)F)c2)[C@@H]2C[C@@H]3CN(CC(O)c4ccccc4)C[C@@H]3C2)c1` (stereo partly specified), the figure is 8.19 min; as for `CN1C[C@H]2C[C@@H](N(Cc3cccc(OC(F)(F)F)c3)C(=O)c3cn(C)cn3)C[C@H]2C1`, 30.5 min; as for `CN1C[C@H]2C[C@@H](N(Cc3ccc(F)c(C(F)(F)F)c3)C(=O)c3cn(C)cn3)C[C@H]2C1`, over 120 min. Regarding `CC(C)Oc1cccc(CN(C(=O)c2cn(C)cn2)[C@H]2C[C@H]3CNC[C@H]3C2)c1`, the half-life was over 120 min. As for `Cn1cnc(C(=O)N(Cc2cccc(OC(F)(F)F)c2)[C@H]2C[C@H]3CNC[C@H]3C2)c1`, the figure is 50 min; as for `Cn1cnc(C(=O)N(Cc2cccc(OC(F)(F)F)c2)[C@@H]2C[C@@H]3CN(CCC(F)(F)F)C[C@@H]3C2)c1`, under 3.2 min; as for `CCN1C[C@H]2C[C@@H](N(Cc3cccc(OC(F)(F)F)c3)C(=O)c3cn(C)cn3)C[C@H]2C1`, 10 min. As to `Cn1cnc(C(=O)N(Cc2ccc(F)c(C(F)(F)F)c2)[C@H]2C[C@H]3CNC[C@H]3C2)c1`, the half-life is over 120 min.

Regarding `Cn1cnc(C(=O)N(Cc2cccc(OC(F)(F)F)c2)[C@@H]2C[C@@H]3CN(CC(C)(C)O)C[C@@H]3C2)c1`, the half-life was determined as 7.06 min. As for `CCN1C[C@H]2C[C@@H](N(Cc3ccc(F)c(C(F)(F)F)c3)C(=O)c3cn(C)cn3)C[C@H]2C1`, the figure is over 120 min. As for `CN1C[C@H]2C[C@@H](N(Cc3ccc(F)c(OC4CCCC4)c3)C(=O)c3cn(C)cn3)C[C@H]2C1`, the figure is 78.1 min. As for `Cn1cnc(C(=O)N(Cc2ccc(F)c(OC3CCCC3)c2)[C@H]2C[C@H]3CNC[C@H]3C2)c1`, the figure is over 111 min; as for `CC(F)CN1C[C@H]2C[C@@H](N(Cc3cccc(OC(F)(F)F)c3)C(=O)c3cn(C)cn3)C[C@H]2C1` (stereo partly specified), under 3.2 min; as for `Cn1cnc(C(=O)N(Cc2cccc(OC3CCCC3)c2)[C@H]2C[C@H]3CNC[C@H]3C2)c1`, over 120 min. `COc1ccc(CN(C(=O)c2cn(C)cn2)[C@H]2C[C@H]3CNC[C@H]3C2)cc1OC1CCCC1` came in with a half-life of over 120 min.

(Values after ChEMBL document CHEMBL1159083, “An octahydro-cyclopenta[c]pyrrole series of inhibitors of the type 1 glycine transporter” (Bioorg Med Chem Lett, 2010).)
